In patent US10220051B2, “Combination of DNA repair inhibition with bendamustine or gemcitabine in the treatment of cancer” (Institute for Cancer Research, priority 2012, dated 2019):
Entries after “also recorded” stand apart in the source; their conditions may differ.

Legend:
Format in all cases: cell-based
Hela cells [1] = assay: Apoptosis assay (Guava Nexin Reagent); conditions: BDM 200 μM followed by Chk1 inhibitor; p<0.01 vs. control
Protocol: (§1) Cell viability and apoptosis assays. Hela cells were seeded into 96 well plates at a density of 1500 cells per well. Cells were treated with BDM (3.125-200 μM) for 24 h. After this time cells were additionally treated either with UCN-01 (100 nM), Chk2 inhibitor (100 nM) or Gö6976 (200 nM) for an additional 24 h. MTS reagent (CellTiter 96® AQueous Proliferation Assay, Promega) was added to each well for 4 h before the absorbance values at 490 nm was read. Experiments were conducted in triplicate, 3 independent times. Data presented are the average absorbance values, relative to control±SD. For apoptosis determination, cells seeded and treated as stated above were stained with Guava Nexin Reagent® (Millipore). Analysis was conducted using the Easycyte module and Cytosoft Software® (Millipore). Experiments were conducted 3 independent times, collecting 2000 events each time. Data shown is the average±SD.

Hela cells [2] = assay: Immunofluorescence of DNA damage foci (γ-H2AX, 53BP1, RPA)
Protocol: (§2) Immunofluorescence. Cells were grown on coverslips, treated with the indicated drugs, fixed and stained. To detect DNA damage induction and repair, antibodies against 53BP1 (Bethyl) and γ-H2AX (Upstate) were used with Alexa Fluor-conjugated secondary antibodies (Invitrogen). All cells were counter-stained with DAPI (Molecular probes). Images were captured using a 40× or 100× objective mounted on an inverted microscope (Eclipse TE2000S; Nikon) with a CCD camera (Photometrics Cascade 512F; Roper Scientific) powered by NIS Elements AR (version 3.10) software (Nikon). For quantitative analysis, individual nuclei were identified using DAPI staining and used to define region of interests (ROI), which were then transposed onto other channels. The sum intensity per nuclei from a minimum of 50 nuclei was averaged±SEM.

Hela cells [3] = assay: Cell viability MTS assay, Hela; conditions: for cell viability, BDM alone: 3.125-200 μM, 48 h continuous
Protocol: as §1

Hela cells [4] = assay: Metaphase spreads
Protocol: Metaphase spreads. Mitotic cells were collected from untreated and bendamustine at 50 μM or 200 μM+UCN-01 (100 nM) treatments. For visualizing, cells were dropped onto a glass slides and stained with DAPI. Mitotic spreads were viewed and imaged using fluorescence microscopy. Images shown are representative of those observed.

[5] = system: Hela cells stably expressing GFP:histone H2B; assay: Time-lapse video microscopy of mitosis
Protocol: Time-lapse video microscopy. Hela cells stably expressing GFP:histone H2B were seeded into 6 well plates and synchronized in S phase using thymidine (2 mM). […] Where appropriate, UCN-01 (100 nM) was added to wells before being supplemented with HEPES (25 mM), layered with mineral oil (Sigma) and placed into a housing chamber which maintained the temperature at 37° C. Using a Nikon TE2000 microscope (Nikon) controlled by MetaMorph software (Molecular Devices), brightfield and fluorescent images were captured every 5 minutes for up to 48 h. Individual movies were analyzed manually and a minimum of 100 cells per treatment scored for the indicated measurements. For montages, selected frames representing different cell morphologies are presented.

Hela cells [6] = assay: Electron microscopy of mitotic chromosomes
Protocol: Electron microscopy. Hela cells were seeded into 6 cm dishes, synchronized with thymidine (2 mM) and treated with BDM 50 μM, 200 μM or gemcitabine (100 μM) for 18 h. Cells treated with UCN-01 (100 μM) for an addition 9 h to obtain mitotic cells were fixed with glutaraldehyde solution (3%, pH 7.4). Samples were prepared for electron microscopy analysis.

Hela cells [7] = assay: Chk1 phosphorylation (Ser-345) in lysates
Protocol: Hela cells were treated for 24 or 48 h continuous treatment or of either 50 or 200 μM BDM or 24 h followed by 24 h in the absence of drugs. […] Quantification of the average fluorescence per nucleus is shown on the right. For γ-H2AX: *P=8.9×10^−28 vs. untreated 24 h; **P=2.1×10^−31 vs. untreated 24 h; †P=5.2×10^−45 vs. untreated 48 h. For 53BP1: *P=4.3×10^−20 vs. untreated 24 h; **P=4.2×10^−41 vs. untreated 24 h; †P=2.0×10^−52 vs. untreated 48 h. For RPA: *P=2.5×10^−16 vs. untreated 24 h; **P=2.8×10^−52 vs. untreated 24 h; †P=3.3×10-^58 vs. untreated 48 h. […] Total Chk1 and alpha tubulin were used to determine loading.

Hela cells [8] = assay: Clonogenic assay, Hela; conditions: for colony formation relative to control (100%): washout, ~10 days
Protocol: Clonogenic assay. Hela cells were seeded into 6 well plates at a density of 1000 cells per well. Cells were treated for 24 h. Cells were then treated with and without UCN-01 (100 nM) for 3 h. All drugs were washed out and cells were left to grow for approximately 10 days. Cells were fixed using Acetic acid:methanol:H2O, (10:10:80), dried and stained with 0.4% crystal violet in 20% ethanol. Qualitative images of representative results are presented. For quantification, colonies were solubilized (1% acetic acid, 30% ethanol) and absorbance values at 595 nm were read. Values are expressed as a percentage relative to untreated cells, with untreated cells set to 100%±SD. Experiments were conducted in triplicate, three independent times. Student's two-tailed unpaired t test was conducted for statistics.

[9] = system: mouse embryonic fibroblasts (WT and TDG−/−); assay: γ-H2AX immunofluorescence in WT and TDG−/− MEFs
Protocol: as §2

[10] = system: PANC1, BXPC3, MCF-7, MDA-MB-435, OVCAR 5 and 10 cells; assay: Cell cycle profile by FACS, panel of cancer cell lines; conditions: 24 h
Protocol: (§3) DNA content analysis via flow cytometry. Following indicated drug treatments, cells were fixed with 70% ethanol. For analysis, cells were stained with propidium iodide, RNase A and sodium citrate. Cells were incubated at 37° C. for 30 minutes before being analyzed using a Becton Dickinson single laser three-fluorescence FACScan flow analyzer and Cell Quest software (Becton Dickinson). DNA content was acquired from 10,000 events and FlowJo software was used to process the data.

Hela cells [11] = assay: EdU incorporation (DNA synthesis); conditions: EdU 10 μM, 12 h
Protocol: EdU incorporation. Hela cells were treated with nocodazole for 14 h after which time mitotic cells were collected by mechanical shake-off. Cells were washed twice with medium and re-plated. BDM and EdU (10 μM) (Click-IT™ EdU imaging kit, Invitrogen) were added 2 h later, when the cells were fully adherent and still in G1, and incubated for an additional 12 h. Cells were fixed and stained according to the manufacturer's protocol. Quantification of EdU incorporation was performed as described for antibody detection.

Hela cells [12] = assay: Cell cycle profile by FACS (DNA content), Hela
Protocol: as §3

[13] = system: U2932 B cell lymphoma cells; assay: Cell cycle profile by FACS, U2932
Protocol: as §3

SK28 cells [14] = assay: SK28 cell viability (MTS assay); conditions: SK28, concentration-dependent, quadruplicate
Protocol: (§4) Tests were conducted in quadruplicate.

SK28 cells [15] = assay: SK28 clonogenic assay; conditions: SK28, concentration-dependent, quadruplicate
Protocol: as §4

[16] = 50 μM BDM 24 h, then UCN-01 100 nM

With `Cn1c2ccccc2c2c3c(c4c5ccccc5n(CCC#N)c4c21)CNC3=O` [Gö6976] the “percentage of apoptotic cells” value (Hela cells [1]) was “exhibited an increase in the percentage of apoptotic cells”.
In the case of `CON` [MX, methoxyamine], the “γ-H2AX foci, combination with BDM” value (Hela cells [2]; 50 μM BDM + methoxyamine 6 mM, 48 h) is reported as “significantly higher levels of γ-H2AX foci than BDM alone”.
`NC(=O)c1ccc2nc(-c3ccc(Oc4ccc(Cl)cc4)cc3)[nH]c2c1` [pharmacological inhibitor of Chk2] was tested, and the “sensitization to killing by BDM” value (Hela cells [3]; any BDM concentration (3.125-200 μM), Chk2 inhibitor 100 nM) was “did not sensitize to killing by any concentration of BDM”.
In the case of `O=c1cc(N2CCOCC2)oc2c(-c3cccc4c3sc3ccccc34)cccc12` [NU7441], the “repair of BDM-induced damage (γ-H2AX)” value (Hela cells [2]; 50 μM BDM + NU7441 10 μM, 48 h) is reported as “did not block repair of BDM-induced damage”.
For `CN[C@@H]1C[C@H]2O[C@@](C)([C@@H]1OC)n1c3ccccc3c3c4c(c5c6ccccc6n2c5c31)C(=O)N[C@@H]4O` [UCN-01], the “percentage of apoptotic cells” value (Hela cells [1]) was “exhibited an increase in the percentage of apoptotic cells”, the “chromosome morphology in metaphase spreads” value (Hela cells [4]; BDM 50 μM + UCN-01) was “no obvious gross structural defects” and the “chromosome morphology in metaphase spreads” value (Hela cells [4]; BDM 200 μM + UCN-01) was “extremely abnormal”. The “sensitization to killing by BDM (viability)” value (Hela cells [3]; 200 μM BDM 24 h, then Chk1 inhibitor 24 h) was “viability was significantly reduced”, the “sensitization to killing by BDM” value (Hela cells [3]; BDM up to 100 μM 24 h, then UCN-01 100 nM 24 h) was “did not sensitize” and the “cell viability, UCN-01 alone” value (Hela cells [3]; UCN-01 alone, any of the assays performed) was “no discernable effects on cell viability”. The “effect on BDM-induced arrest” value [5, 16] was “abrogated the arrest”, the “time to start of mitotic entry after UCN-01 addition” value [5, 16] was 4 h and the “delay at metaphase (average)” value ([5]; 50 μM BDM + UCN-01, controls 37.5±16.7 minutes) was 89 ± 64.7 min. For the same molecule, the “chromosome ultra-structure (electron microscopy)” value (Hela cells [6]; BDM 50 μM + UCN-01) was “intact chromosomes were clearly visualized” and the “chromosome ultra-structure (electron microscopy)” value (Hela cells [6]; BDM 200 μM + UCN-01) was “highly fragmented”.
In the case of `Cn1c(CCCC(=O)O)nc2cc(N(CCCl)CCCl)ccc21` [BDM, Bendamustine], the “Chk1 phosphorylation (Ser-345)” value (Hela cells [7]; 50 μM BDM, 48 h) is reported as “no signal was observed”, the “Chk1 phosphorylation (Ser-345)” value (Hela cells [7]; 200 μM BDM, 48 h) is reported as “detectable pChk1 was still present” and the “Chk1 phosphorylation (Ser-345)” value (Hela cells [7]; 24 h treatment) is reported as “dose-dependently phosphorylated”. For the same molecule, the “colony formation relative to control (100%)” value (Hela cells [8]; 50 μM BDM 24 h) was 87.8±11.2%, the “reduction in clonogenic survival” value (Hela cells [8]; 200 uM BDM) was 95% and the “colony formation relative to control (100%)” value (Hela cells [8]; 200 μM BDM 24 h) was 3.5±1.3%. The “γ-H2AX staining, TDG−/− MEFs versus wildtype MEFs” value ([9]; 10 μM BDM, 24 h) was “increased γ-H2AX staining”, the “repair of DNA damage, TDG−/− MEFs versus wildtype MEFs” value ([9]; 48 h continuous treatment) was “reduced ability to repair the DNA damage” and the “cell viability, BDM alone” value (Hela cells [3]) was “did not reduce cell viability as compared to control treatment”. For the same molecule, the “cell viability, BDM alone” value (Hela cells [3]; listed as bendamustine) was “not particularly effective at killing Hela cells”, the “fate of cells forced into mitosis” value ([5]; 50 μM BDM + Chk1 inhibition) was “progress through mitosis relatively normally” and the “percentage of cells entering mitosis” value ([5]; 50 μM BDM, over 24 h) was “caused a reduction in the percentage of cells entering mitosis”. For the same molecule, the mitotic index ([5]; 200 μM BDM) was “reduced mitotic index”, the “fate of cells forced into mitosis” value ([5]; 200 μM BDM + Chk1 inhibition) was “majority failing to exit and instead die in mitosis” and the mitotic figures ([5]; 200 μM BDM + Chk1 inhibition) was “highly abnormal”. For the same molecule, the cell cycle arrest ([10]; 50 μM BDM) was “G2 arrest”, the cell cycle arrest ([10]; 200 μM BDM) was “S phase arrest” and the “EdU incorporation relative to untreated (100%)” value (Hela cells [11]; 50 μM BDM) was 98.0±4.1%. For the same molecule, the “EdU incorporation relative to untreated (100%)” value (Hela cells [11]; 200 μM BDM) was 64.7±2.6%, the cell cycle profile (Hela cells [12]; 50 μM BDM 24 h, then another 24 h with or without BDM) was “displayed a normal cell cycle profile” and the cell cycle arrest (Hela cells [12]; 200 μM BDM, after washout or 48 h continuous) was “maintained after drug washout, or 48 h continuous treatment”. For the same molecule, the cell cycle profile (Hela cells [12]; Hela synchronized in G1, 200 μM BDM, 24 h) was “arrested in S phase”, the cell cycle profile (Hela cells [12]; Hela synchronized in G1, 25-100 μM BDM, 24 h) was “accumulated as 4N DNA content indicating a G2/M delay” and the “γ-H2AX, RPA and 53BP1 foci” value (Hela cells [2]; 50 μM BDM 24 h, then 24 h after washout) was “reduced to levels comparable to untreated cells”. The “γ-H2AX, RPA and 53BP1 foci” value (Hela cells [2]; 50 μM BDM, 24 h) was “accumulated γ-H2AX, RPA and 53BP1 foci”, the “γ-H2AX, RPA and 53BP1 staining” value (Hela cells [2]; 50 μM BDM, 48 h continuous) was “reduced to control cells” and the “γ-H2AX, RPA and 53BP1 foci” value (Hela cells [2]; 200 μM BDM 24 h, after drug removal) was “foci persisted after drug was removed”. For the same molecule, the “γ-H2AX, RPA and 53BP1 foci” value (Hela cells [2]; 200 μM BDM, 24 h) was “an increase in γ-H2AX, RPA and 53BP1”, the DNA damage foci (Hela cells [2]; 200 μM BDM, 48 h continuous) was “not reduced” and the “53BP1, RPA and γ-H2AX nuclear foci” value (Hela cells [2]; dose dependence) was “increased in a dose-dependent manner”. For the same molecule, the cell cycle arrest ([13]; 10 μM BDM) was “induced a G2 arrest”, the cell cycle arrest ([13]; 25 μM BDM) was “S phase arrest” and the cell cycle arrest ([13]; 50 μM BDM) was “induced an S phase arrest”.
With `C=CC1=C(C(=O)O)N2C(=O)[C@@H](NC(=O)/C(=N\OCC(=O)O)c3csc(N)n3)[C@H]2SC1` [cefixime, (6R,7R)-7-{[2-(2-amino-1,3-thiazol-4-yl)-2-(carboxymethoxyimino)acetyl]amino}-3-ethenyl-8-oxo-5-thia-1-azabicyclo[4.2.0]oct-2-ene-2-carboxylic acid] the cell viability (SK28 cells [14]) was “reduce cell viability” and the “clonogenic capacity / colony-forming ability” value (SK28 cells [15]) was “reduce cell viability and clonogenic capacity; also recorded: reduction of clonogenic capacity”.
